ChEMBL document CHEMBL5154741, “Antibacterial alkylguanidino ureas: Molecular simplification approach, searching for membrane-based MoA” (Eur J Med Chem, 2022)
Converted amounts (≈) assume the structure as drawn. The source made the active and inactive calls. The rule behind the calls is not given here.

Key:
[1] = system: Bacillus subtilis; assay: Antibacterial activity against Bacillus subtilis ATCC 6633 assessed as bacterial growth inhibition incubated for 18 hrs by CLSI based micro-dilution broth method; type: functional
[2] = system: Enterococcus faecalis; assay: Antibacterial activity against Enterococcus faecalis ATCC 19433 assessed as bacterial growth inhibition incubated for 18 hrs by micro-dilution broth method; type: functional
[3] = system: Streptococcus pyogenes; assay: Antibacterial activity against Streptococcus pyogenes ATCC 12344 assessed as bacterial growth inhibition incubated for 18 hrs by micro-dilution broth method; type: functional
[4] = system: Staphylococcus aureus; assay: Antibacterial activity against Staphylococcus aureus ATCC 25923 assessed as bacterial growth inhibition incubated for 18 hrs by micro-dilution broth method; type: functional
[5] = system: Escherichia coli; assay: Antibacterial activity against Escherichia coli CCUG assessed as bacterial growth inhibition incubated for 18 hrs by micro-dilution broth method; type: functional
[6] = system: Klebsiella pneumoniae; assay: Antibacterial activity against Klebsiella pneumoniae ATCC 13833 assessed as bacterial growth inhibition incubated for 18 hrs by micro-dilution broth method; type: functional
[7] = system: Acinetobacter baumannii; assay: Antibacterial activity against Acinetobacter baumannii ATCC 17978 assessed as bacterial growth inhibition incubated for 18 hrs by micro-dilution broth method; type: functional
[8] = system: Lipid bilayer; assay: Binding affinity to bacterial membrane mimic POPG large unilamellar vesicle assessed as bathochromic shift at 125 uM measured at t = 0 by UV-Vis spectrophotometric analysis
[9] = Apparent permeability of the compound across bacterial inner membrane mimic PC-phospholipids in PBS buffer at pH 7.4 incubated for 5 hrs by PAMPA based UV-Vis spectrophotometric analysis; type: ADME
[10] = Apparent permeability of the compound across bacterial inner membrane mimic PC-phospholipids in PBS buffer assessed as membrane retention at pH 7.4 incubated for 5 hrs by PAMPA based UV-Vis spectrophotometric analysis; type: ADME, cell membranes; conditions: pH 7.4, 5 h
[11] = Apparent permeability of the compound across bacterial inner membrane mimic pure POPG in PBS buffer at pH 7.4 incubated for 5 hrs by PAMPA based UV-Vis spectrophotometric analysis; type: ADME
[12] = Apparent permeability of the compound across bacterial inner membrane mimic pure POPG in PBS buffer assessed as membrane retention at pH 7.4 incubated for 5 hrs by PAMPA based UV-Vis spectrophotometric analysis; type: ADME, cell membranes; conditions: pH 7.4, 5 h
[13] = Apparent permeability of the compound across bacterial inner membrane mimic POPE/POPG (6:4) in PBS buffer at pH 7.4 incubated for 5 hrs by PAMPA based UV-Vis spectrophotometric analysis; type: ADME
[14] = system: Cell membrane; assay: Disruption of membrane integrity in Bacillus subtilis ATCC 6633 assessed as increase in PI uptake at 16 ug/ml measured after 15 mins by SYTO9/PI staining based fluorometric analysis; conditions: dose 16.0 µg/ml
[15] = system: Cell membrane; assay: Disruption of membrane integrity in Pseudomonas aeruginosa ATCC 27853 assessed as increase in PI uptake at 16 ug/ml measured every 15 mins for 6 hrs by SYTO9/PI staining based fluorometric analysis; conditions: dose 16.0 µg/ml
[16] = system: Cell membrane; assay: Disruption of membrane integrity in Enterococcus faecalis ATCC 19433 assessed as increase in PI uptake at 16 ug/ml measured after 15 mins by SYTO9/PI staining based fluorometric analysis; conditions: dose 16.0 µg/ml
[17] = system: Cell membrane; assay: Disruption of membrane integrity in Escherichia coli MG1655 assessed as increase in PI uptake at 16 ug/ml measured every 15 mins for 6 hrs by SYTO9/PI staining based fluorometric analysis; conditions: dose 16.0 µg/ml
[18] = system: Cell membrane; assay: Disruption of membrane integrity in Staphylococcus aureus ATCC 25923 assessed as increase in PI uptake at 16 ug/ml measured every 15 mins for 6 hrs by SYTO9/PI staining based fluorometric analysis; type: subcellular; conditions: dose 16.0 µg/ml
[19] = system: Cell membrane; assay: Disruption of membrane integrity in Enterococcus faecalis ATCC 19433 assessed as increase in PI positive cells at 16 ug/ml measured after 1 hr by SYTO9/PI staining based confocal laser scanning microscope analysis; type: subcellular; conditions: dose 16.0 µg/ml
[20] = system: Cell membrane; assay: Disruption of membrane integrity in Bacillus subtilis ATCC 6633 assessed as increase in PI positive cells at 16 ug/ml measured after 1 hr by SYTO9/PI staining based confocal laser scanning microscope analysis; type: subcellular; conditions: dose 16.0 µg/ml
[21] = system: Cell membrane; assay: Disruption of membrane integrity in Acinetobacter baumannii ATCC 17978 assessed as increase in PI positive cells at 16 ug/ml measured after 1 hr by SYTO9/PI staining based confocal laser scanning microscope analysis; conditions: dose 16.0 µg/ml
[22] = system: Cell membrane; assay: Disruption of membrane integrity in Escherichia coli MG1655 assessed as increase in PI positive cells at 16 ug/ml measured after 1 hr by SYTO9/PI staining based confocal laser scanning microscope analysis; type: subcellular; conditions: dose 16.0 µg/ml
[23] = system: Cell membrane; assay: Disruption of membrane integrity in Staphylococcus aureus ATCC 25923 assessed as increase in PI positive cells at 16 ug/ml measured after 1 hr by SYTO9/PI staining based confocal laser scanning microscope analysis; type: subcellular; conditions: dose 16.0 µg/ml
[24] = Hemolytic activity against human RBC at 1 ug/ml incubated for 30 mins (reference value: 0%); type: toxicity, cell-based, Erythrocyte; conditions: human red blood cells (erythrocytes), at 1 µg/mL, read-out: Activity
[25] = Hemolytic activity against human RBC at 2 ug/ml incubated for 30 mins (reference value: 0%); type: toxicity, cell-based, Erythrocyte; conditions: human red blood cells (erythrocytes), at 2 µg/mL, read-out: Activity
[26] = Hemolytic activity against human RBC at 4 ug/ml incubated for 30 mins (reference value: 0%); type: toxicity, cell-based, Erythrocyte; conditions: human red blood cells (erythrocytes), at 4 µg/mL, read-out: Activity
[27] = Hemolytic activity against human RBC at 8 ug/ml incubated for 30 mins (reference value: 0%); type: toxicity, cell-based, Erythrocyte; conditions: human red blood cells (erythrocytes), at 8 µg/mL, read-out: Activity
[28] = Hemolytic activity against human RBC at 16 ug/ml incubated for 30 mins relative to control; type: toxicity, cell-based, Erythrocyte; conditions: human red blood cells (erythrocytes), at 16 µg/mL, read-out: Activity
[29] = Hemolytic activity against human RBC at 32 ug/ml incubated for 30 mins (reference value: 0%); type: toxicity, cell-based, Erythrocyte; conditions: human red blood cells (erythrocytes), at 32 µg/mL, read-out: Activity
[30] = Hemolytic activity against human RBC at 64 ug/ml incubated for 30 mins (reference value: 0%); type: toxicity, cell-based, Erythrocyte; conditions: human red blood cells (erythrocytes), at 64 µg/mL, read-out: Activity
[31] = system: Cell membrane; assay: Disruption of membrane integrity in Acinetobacter baumannii ATCC 17978 assessed as increase in PI uptake at 16 ug/ml measured after 1 hr by SYTO9/PI staining based fluorometric analysis; type: subcellular; conditions: dose 16.0 µg/ml
[32] = system: Cell membrane; assay: Disruption of membrane integrity in Bacillus subtilis ATCC 6633 assessed as increase in PI uptake at 16 ug/ml measured after 1 hr by SYTO9/PI staining based fluorometric analysis; type: subcellular; conditions: dose 16.0 µg/ml
[33] = system: Cell membrane; assay: Disruption of membrane integrity in Enterococcus faecalis ATCC 19433 assessed as increase in PI uptake at 16 ug/ml measured after 1 hr by SYTO9/PI staining based fluorometric analysis; type: subcellular; conditions: dose 16.0 µg/ml
[34] = system: Cell membrane; assay: Disruption of membrane integrity in Escherichia coli MG1655 assessed as increase in PI uptake at 16 ug/ml measured after 1 hr by SYTO9/PI staining based fluorometric analysis; type: subcellular; conditions: dose 16.0 µg/ml
[35] = system: Cell membrane; assay: Disruption of membrane integrity in Pseudomonas aeruginosa ATCC 27853 assessed as increase in PI uptake at 16 ug/ml measured after 1 hr by SYTO9/PI staining based fluorometric analysis; type: subcellular; conditions: dose 16.0 µg/ml

| Structure (SMILES) | MIC [1] | MIC [2] | MIC [3] | MIC [4] | MIC [5] | MIC [6] | MIC [7] | Activity [8] | Papp at 5 h [9] | R% [10] | Papp at 5 h [11] | R% [12] | Papp at 5 h [13] | Activity [14] | Activity [15] | Activity [16] | Activity [17] | Activity [18] | Activity [19] | Activity [20] | also measured |
| --- | --- | --- | --- | --- | --- | --- | --- | --- | --- | --- | --- | --- | --- | --- | --- | --- | --- | --- | --- | --- | --- |
| CCCCCCCCN(CCCCCCCCNC(=N)NCC1CC1)C(=O)N(CCCCCCNC(=N)NCC1CC1)CCCCCCNC(=N)NCC1CC1 | 0.5 µg/mL (≈ 0.636 µM) | 0.5 µg/mL (≈ 0.636 µM) | 1 µg/mL (≈ 1.27 µM) | 2 µg/mL (≈ 2.54 µM) | 4 µg/mL (≈ 5.09 µM) | 4 µg/mL (≈ 5.09 µM) | 16 µg/mL (≈ 20.3 µM) | Active | 4.79 ×10⁻⁶ cm/s | 0% | 0.18 ×10⁻⁶ cm/s | 63% | 0.13 ×10⁻⁶ cm/s | Active | Active | Active | Active | Active | Active | Active | Activity [21]: Active; Activity [22]: Active; Activity [23]: Active; hemolysis at 0.5 h, 1 ug/ml [24]: 0%; hemolysis at 0.5 h, 2 ug/ml [25]: 0%; hemolysis at 0.5 h, 4 ug/ml [26]: 0.5%; hemolysis at 0.5 h, 8 ug/ml [27]: 1.2%; hemolysis at 0.5 h, 16 ug/ml [28]: 2.4%; hemolysis at 0.5 h, 32 ug/ml [29]: 8.4%; hemolysis at 0.5 h, 64 ug/ml [30]: 46.4%; Activity [31]: Active; Activity [32]: Active; Activity [33]: Active; Activity [34]: Active; Activity [35]: Active |
| N=C(NCCCCCCCCNC(N)=O)NCC1CC1.O=C(O)C(F)(F)F | 1 µg/mL | 1 µg/mL | 0.5 µg/mL | 1 µg/mL | 2 µg/mL | 1 µg/mL | 16 µg/mL | Active | 3.17 ×10⁻⁶ cm/s | 7.7% | 6.1 ×10⁻⁶ cm/s | 16% | 3.48 ×10⁻⁶ cm/s | Active | Active | Active | Active | Active | Active | Active | Activity [21]: Active; Activity [22]: Active; Activity [23]: Active; hemolysis at 0.5 h, 1 ug/ml [24]: 0%; hemolysis at 0.5 h, 2 ug/ml [25]: 0%; hemolysis at 0.5 h, 4 ug/ml [26]: 0%; hemolysis at 0.5 h, 8 ug/ml [27]: 0%; hemolysis at 0.5 h, 16 ug/ml [28]: 0%; hemolysis at 0.5 h, 32 ug/ml [29]: 0%; hemolysis at 0.5 h, 64 ug/ml [30]: 0%; Activity [31]: Active; Activity [32]: Active; Activity [33]: Active; Activity [34]: Active; Activity [35]: Active |
| N=C(N)NCCCCCCCCN(CCCCCCCCNC(=N)NCC1CC1)C(=O)N(CCCCCCCCNC(=N)NCC1CC1)CCCCCCCCNC(=N)NCC1CC1.O=C(O)C(F)(F)F | 0.5 µg/mL | 1 µg/mL | 0.25 µg/mL | 0.5 µg/mL | 0.5 µg/mL | 1 µg/mL | 4 µg/mL | Active | 1.85 ×10⁻⁶ cm/s | 0% | 0.26 ×10⁻⁶ cm/s | 56% | 0.3 ×10⁻⁶ cm/s | Active | Active | Active | Active | Active | Active | Active | Activity [21]: Active; Activity [22]: Active; Activity [23]: Active; hemolysis at 0.5 h, 1 ug/ml [24]: 0%; hemolysis at 0.5 h, 2 ug/ml [25]: 0%; hemolysis at 0.5 h, 4 ug/ml [26]: 0%; hemolysis at 0.5 h, 8 ug/ml [27]: 0%; hemolysis at 0.5 h, 16 ug/ml [28]: 1.1%; hemolysis at 0.5 h, 32 ug/ml [29]: 3.3%; hemolysis at 0.5 h, 64 ug/ml [30]: 8.1%; Activity [31]: Active; Activity [32]: Active; Activity [33]: Active; Activity [34]: Active; Activity [35]: Active |
